# Legend:
# [1] = target: Activin receptor type-1B (Homo sapiens) (UniProt P36896); assay: Inhibition of ACVRB (unknown origin) at 0.1 uM relative to control
# [2] = target: Tyrosine-protein kinase ABL1 (Homo sapiens) (UniProt P00519); assay: Inhibition of Abl (unknown origin) at 0.1 uM relative to control
# [3] = target: Tyrosine-protein kinase ABL2 (Homo sapiens) (UniProt P42684); assay: Inhibition of Arg (unknown origin) at 0.1 uM relative to control
# [4] = target: Aurora kinase A (Homo sapiens) (UniProt O14965); assay: Inhibition of Aurora A (unknown origin) at 0.1 uM relative to control
# [5] = target: Tyrosine-protein kinase Blk (Homo sapiens) (UniProt P51451); assay: Inhibition of Blk (unknown origin) at 0.1 uM relative to control
# [6] = target: Cytoplasmic tyrosine-protein kinase BMX (Homo sapiens) (UniProt P51813); assay: Inhibition of Bmx (unknown origin) at 0.1 uM relative to control
# [7] = target: Protein-tyrosine kinase 6 (Homo sapiens) (UniProt Q13882); assay: Inhibition of Brk (unknown origin) at 0.1 uM relative to control
# [8] = target: Casein kinase II subunit alpha (Homo sapiens) (UniProt P68400); assay: Inhibition of CK2alpha1 (unknown origin) at 0.1 uM relative to control
# [9] = target: Macrophage colony-stimulating factor 1 receptor (Homo sapiens) (UniProt P07333); assay: Inhibition of CSF1R (unknown origin) at 0.1 uM relative to control
# [10] = target: Dual specificity tyrosine-phosphorylation-regulated kinase 3 (Homo sapiens) (UniProt O43781); assay: Inhibition of DYRK3 (unknown origin) at 0.1 uM relative to control
# [11] = target: Mitogen-activated protein kinase 3 (Homo sapiens) (UniProt P27361); assay: Inhibition of ERK1 (unknown origin) at 0.1 uM relative to control
# [12] = target: Ephrin type-A receptor 1 (Homo sapiens) (UniProt P21709); assay: Inhibition of EphA1 (unknown origin) at 0.1 uM relative to control
# [13] = target: Ephrin type-B receptor 4 (Homo sapiens) (UniProt P54760); assay: Inhibition of EphB4 (unknown origin) at 0.1 uM relative to control
# [14] = target: Receptor tyrosine-protein kinase erbB-4 (Homo sapiens) (UniProt Q15303); assay: Inhibition of ErbB4 (unknown origin) at 0.1 uM relative to control
# [15] = target: Fibroblast growth factor receptor 2 (Homo sapiens) (UniProt P21802); assay: Inhibition of FGFR2 (unknown origin) at 0.1 uM relative to control
# [16] = target: Vascular endothelial growth factor receptor 1 (Homo sapiens) (UniProt P17948); assay: Inhibition of Flt1 (unknown origin) at 0.1 uM relative to control
# [17] = target: Homeodomain-interacting protein kinase 4 (Homo sapiens) (UniProt Q8NE63); assay: Inhibition of HIPK4 (unknown origin) at 0.1 uM relative to control
# [18] = target: Tyrosine-protein kinase JAK2 (Homo sapiens) (UniProt O60674); assay: Inhibition of JAK2 (unknown origin) at 0.1 uM relative to control
# [19] = target: Tyrosine-protein kinase JAK3 (Homo sapiens) (UniProt P52333); assay: Inhibition of JAK3 (unknown origin) at 0.1 uM relative to control
# [20] = target: Vascular endothelial growth factor receptor 2 (Homo sapiens) (UniProt P35968); assay: Inhibition of KDR (unknown origin) at 0.1 uM relative to control
# [21] = target: Mast/stem cell growth factor receptor Kit (Homo sapiens) (UniProt P10721); assay: Inhibition of Kit (unknown origin) at 0.1 uM relative to control
# [22] = target: Serine/threonine-protein kinase 24 (Homo sapiens) (UniProt Q9Y6E0); assay: Inhibition of MST3 (unknown origin) at 0.1 uM relative to control
# [23] = target: Tyrosine-protein kinase Mer (Homo sapiens) (UniProt Q12866); assay: Inhibition of Mer (unknown origin) at 0.1 uM relative to control
# [24] = target: Misshapen-like kinase 1 (Homo sapiens) (UniProt Q8N4C8); assay: Inhibition of Mink1 (unknown origin) at 0.1 uM relative to control
# [25] = target: Serine/threonine-protein kinase Nek9 (Homo sapiens) (UniProt Q8TD19); assay: Inhibition of NEK9 (unknown origin) at 0.1 uM relative to control
# [26] = target: Serine/threonine-protein kinase PAK 4 (Homo sapiens, UniProt O96013); assay: Inhibition of PAK4 (unknown origin) at 0.1 uM relative to control
# [27] = target: Serine/threonine-protein kinase D1 (Homo sapiens) (UniProt Q15139); assay: Inhibition of PKD1 (unknown origin) at 0.1 uM relative to control
# [28] = target: 5'-AMP-activated protein kinase catalytic subunit alpha-1 (Homo sapiens) (UniProt Q13131); assay: Inhibition of PRKAA1 (unknown origin) at 0.1 uM relative to control
# [29] = target: Phosphorylase b kinase gamma catalytic chain, skeletal muscle/heart isoform (Homo sapiens) (UniProt Q16816); assay: Inhibition of PhKgamma1 (unknown origin) at 0.1 uM relative to control
# [30] = test system: RAF proto-oncogene serine/threonine-protein kinase (Homo sapiens), P04049 [Y340D,Y341D]; assay: Inhibition of RAF1 Y340D/Y341D double mutant (unknown origin) at 0.1 uM relative to control
# [31] = target: Proto-oncogene tyrosine-protein kinase receptor Ret (Homo sapiens) (UniProt P07949); assay: Inhibition of Ret (unknown origin) at 0.1 uM relative to control
# [32] = target: Macrophage-stimulating protein receptor (Homo sapiens) (UniProt Q04912); assay: Inhibition of Ron (unknown origin) at 0.1 uM relative to control
# [33] = target: Ribosomal protein S6 kinase alpha-3 (Homo sapiens) (UniProt P51812); assay: Inhibition of Rsk2 (unknown origin) at 0.1 uM relative to control
# [34] = target: Ribosomal protein S6 kinase alpha-2 (Homo sapiens) (UniProt Q15349); assay: Inhibition of Rsk3 (unknown origin) at 0.1 uM relative to control
# [35] = target: Proto-oncogene tyrosine-protein kinase Src (Homo sapiens) (UniProt P12931); assay: Inhibition of Src (unknown origin) at 0.1 uM relative to control
# [36] = target: Tyrosine-protein kinase SYK (Homo sapiens) (UniProt P43405); assay: Inhibition of Syk (unknown origin) at 0.1 uM relative to control
# [37] = target: Serine/threonine-protein kinase TBK1 (Homo sapiens) (UniProt Q9UHD2); assay: Inhibition of TBK1 (unknown origin) at 0.1 uM relative to control
# [38] = target: Mitogen-activated protein kinase 14 (Homo sapiens) (UniProt Q16539); assay: Inhibition of p38alpha (unknown origin) at 0.1 uM relative to control
# [39] = target: Mitogen-activated protein kinase 13 (Homo sapiens) (UniProt O15264); assay: Inhibition of p38delta (unknown origin) at 0.1 uM relative to control
# Chain of Misshapen-like kinase 1 (Homo sapiens) (Q8N4C8 whole entry, looked up): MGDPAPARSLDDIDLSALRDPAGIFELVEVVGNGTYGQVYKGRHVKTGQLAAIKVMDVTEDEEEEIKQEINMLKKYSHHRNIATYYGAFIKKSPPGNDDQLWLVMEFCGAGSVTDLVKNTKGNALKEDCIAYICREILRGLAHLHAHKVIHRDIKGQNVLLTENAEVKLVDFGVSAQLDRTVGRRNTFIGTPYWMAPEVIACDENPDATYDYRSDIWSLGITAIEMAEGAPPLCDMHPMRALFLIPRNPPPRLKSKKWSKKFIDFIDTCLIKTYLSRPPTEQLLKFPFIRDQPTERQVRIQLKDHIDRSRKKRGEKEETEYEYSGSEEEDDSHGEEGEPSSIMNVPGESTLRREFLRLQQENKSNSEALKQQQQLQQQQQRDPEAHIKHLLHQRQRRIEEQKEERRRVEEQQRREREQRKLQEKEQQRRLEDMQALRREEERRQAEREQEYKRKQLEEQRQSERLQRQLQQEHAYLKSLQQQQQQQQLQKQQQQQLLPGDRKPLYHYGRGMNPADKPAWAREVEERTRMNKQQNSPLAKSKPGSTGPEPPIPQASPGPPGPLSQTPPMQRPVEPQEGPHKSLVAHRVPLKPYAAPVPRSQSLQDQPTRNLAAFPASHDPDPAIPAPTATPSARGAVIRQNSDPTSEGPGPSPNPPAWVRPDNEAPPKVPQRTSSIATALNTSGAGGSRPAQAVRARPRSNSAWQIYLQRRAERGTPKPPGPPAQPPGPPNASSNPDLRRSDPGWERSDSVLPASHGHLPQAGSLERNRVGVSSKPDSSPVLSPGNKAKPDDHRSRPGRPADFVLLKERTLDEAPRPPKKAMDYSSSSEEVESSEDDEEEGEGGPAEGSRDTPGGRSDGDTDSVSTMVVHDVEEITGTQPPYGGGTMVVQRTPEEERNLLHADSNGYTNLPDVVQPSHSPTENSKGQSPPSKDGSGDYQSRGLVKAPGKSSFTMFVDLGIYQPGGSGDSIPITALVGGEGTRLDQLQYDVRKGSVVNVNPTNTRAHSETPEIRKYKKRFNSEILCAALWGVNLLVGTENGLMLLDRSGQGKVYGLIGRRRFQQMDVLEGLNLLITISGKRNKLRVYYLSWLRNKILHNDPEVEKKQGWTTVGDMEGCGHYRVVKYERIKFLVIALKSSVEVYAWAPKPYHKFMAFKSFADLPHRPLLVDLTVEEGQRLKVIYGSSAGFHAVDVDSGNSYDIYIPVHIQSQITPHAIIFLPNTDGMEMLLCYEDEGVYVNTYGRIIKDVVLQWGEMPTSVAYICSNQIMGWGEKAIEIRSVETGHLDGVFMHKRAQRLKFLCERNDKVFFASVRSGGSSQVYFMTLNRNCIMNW
# Chain of Mitogen-activated protein kinase 14 (Homo sapiens) (Q16539 whole entry): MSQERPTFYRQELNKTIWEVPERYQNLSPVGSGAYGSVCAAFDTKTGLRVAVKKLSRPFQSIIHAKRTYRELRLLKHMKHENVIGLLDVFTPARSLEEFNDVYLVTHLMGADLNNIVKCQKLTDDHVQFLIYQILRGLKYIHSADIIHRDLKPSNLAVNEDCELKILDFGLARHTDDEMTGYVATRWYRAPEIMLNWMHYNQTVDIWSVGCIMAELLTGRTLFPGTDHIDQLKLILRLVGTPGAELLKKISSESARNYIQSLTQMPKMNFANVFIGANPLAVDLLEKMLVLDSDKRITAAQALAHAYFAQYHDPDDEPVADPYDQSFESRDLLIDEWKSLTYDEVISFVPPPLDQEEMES
# Chain of Vascular endothelial growth factor receptor 2 (Homo sapiens) (P35968 whole entry): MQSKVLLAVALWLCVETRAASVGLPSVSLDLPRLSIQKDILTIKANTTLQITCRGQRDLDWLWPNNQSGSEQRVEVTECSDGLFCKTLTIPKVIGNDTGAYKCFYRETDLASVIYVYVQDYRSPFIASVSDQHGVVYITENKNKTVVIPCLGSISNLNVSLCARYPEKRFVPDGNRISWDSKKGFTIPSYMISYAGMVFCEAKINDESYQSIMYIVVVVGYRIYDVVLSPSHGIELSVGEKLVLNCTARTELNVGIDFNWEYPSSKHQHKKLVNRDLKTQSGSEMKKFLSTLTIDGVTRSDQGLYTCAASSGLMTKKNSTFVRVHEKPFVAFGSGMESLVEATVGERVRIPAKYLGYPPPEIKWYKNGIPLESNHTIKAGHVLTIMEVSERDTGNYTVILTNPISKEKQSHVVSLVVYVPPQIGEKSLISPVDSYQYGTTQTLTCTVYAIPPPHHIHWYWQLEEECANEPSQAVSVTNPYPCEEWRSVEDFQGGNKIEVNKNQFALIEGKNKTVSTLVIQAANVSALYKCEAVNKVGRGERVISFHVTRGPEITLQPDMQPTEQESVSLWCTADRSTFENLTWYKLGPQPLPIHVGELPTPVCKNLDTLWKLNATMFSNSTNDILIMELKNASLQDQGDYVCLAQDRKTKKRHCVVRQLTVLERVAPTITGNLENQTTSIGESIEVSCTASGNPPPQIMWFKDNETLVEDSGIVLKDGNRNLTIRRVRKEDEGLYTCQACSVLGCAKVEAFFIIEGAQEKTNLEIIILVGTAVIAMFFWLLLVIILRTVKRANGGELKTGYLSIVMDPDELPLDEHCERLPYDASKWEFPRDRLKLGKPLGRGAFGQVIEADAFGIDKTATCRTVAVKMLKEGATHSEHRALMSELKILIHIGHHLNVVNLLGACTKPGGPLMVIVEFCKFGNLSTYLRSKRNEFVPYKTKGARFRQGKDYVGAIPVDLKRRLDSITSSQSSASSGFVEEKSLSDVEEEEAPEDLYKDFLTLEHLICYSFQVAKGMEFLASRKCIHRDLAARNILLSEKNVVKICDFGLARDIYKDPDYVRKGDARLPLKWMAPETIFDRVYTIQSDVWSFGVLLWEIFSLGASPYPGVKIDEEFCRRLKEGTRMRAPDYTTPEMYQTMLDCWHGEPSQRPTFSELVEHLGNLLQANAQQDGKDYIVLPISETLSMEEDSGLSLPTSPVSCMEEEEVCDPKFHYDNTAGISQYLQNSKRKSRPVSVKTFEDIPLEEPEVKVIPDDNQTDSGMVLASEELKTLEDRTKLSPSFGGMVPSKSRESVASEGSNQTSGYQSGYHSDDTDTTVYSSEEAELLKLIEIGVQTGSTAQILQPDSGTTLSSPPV
# Chain of Tyrosine-protein kinase Blk (Homo sapiens) (P51451 2-505 limits assumed): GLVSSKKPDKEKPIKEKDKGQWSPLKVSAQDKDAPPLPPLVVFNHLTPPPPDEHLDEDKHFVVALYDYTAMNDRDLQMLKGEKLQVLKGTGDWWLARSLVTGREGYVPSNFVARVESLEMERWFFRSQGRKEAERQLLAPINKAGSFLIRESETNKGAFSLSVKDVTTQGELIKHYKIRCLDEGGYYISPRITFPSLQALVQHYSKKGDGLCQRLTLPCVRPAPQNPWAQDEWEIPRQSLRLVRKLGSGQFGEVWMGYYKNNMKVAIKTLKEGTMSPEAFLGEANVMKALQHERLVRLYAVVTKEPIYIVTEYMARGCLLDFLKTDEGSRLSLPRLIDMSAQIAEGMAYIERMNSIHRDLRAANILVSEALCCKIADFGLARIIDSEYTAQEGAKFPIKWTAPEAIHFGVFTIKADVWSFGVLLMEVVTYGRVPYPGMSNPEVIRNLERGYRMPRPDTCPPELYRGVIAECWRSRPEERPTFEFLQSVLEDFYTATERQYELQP
# Chain of Proto-oncogene tyrosine-protein kinase Src (Homo sapiens) (P12931 2-536 limits assumed): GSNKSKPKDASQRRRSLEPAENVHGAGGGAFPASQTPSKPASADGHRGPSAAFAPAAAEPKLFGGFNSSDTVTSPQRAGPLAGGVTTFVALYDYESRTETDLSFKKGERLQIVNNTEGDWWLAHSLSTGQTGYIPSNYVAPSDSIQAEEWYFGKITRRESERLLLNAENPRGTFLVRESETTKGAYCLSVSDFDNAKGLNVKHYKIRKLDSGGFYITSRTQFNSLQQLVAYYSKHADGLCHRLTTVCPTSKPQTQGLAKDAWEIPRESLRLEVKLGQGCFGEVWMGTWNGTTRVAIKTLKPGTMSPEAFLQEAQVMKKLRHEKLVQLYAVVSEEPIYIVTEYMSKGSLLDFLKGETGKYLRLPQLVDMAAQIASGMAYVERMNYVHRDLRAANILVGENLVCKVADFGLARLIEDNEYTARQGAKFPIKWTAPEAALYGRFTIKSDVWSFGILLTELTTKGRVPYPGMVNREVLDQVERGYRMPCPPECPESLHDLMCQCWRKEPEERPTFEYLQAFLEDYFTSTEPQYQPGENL
# Chain of Mitogen-activated protein kinase 3 (Homo sapiens) (P27361 whole entry): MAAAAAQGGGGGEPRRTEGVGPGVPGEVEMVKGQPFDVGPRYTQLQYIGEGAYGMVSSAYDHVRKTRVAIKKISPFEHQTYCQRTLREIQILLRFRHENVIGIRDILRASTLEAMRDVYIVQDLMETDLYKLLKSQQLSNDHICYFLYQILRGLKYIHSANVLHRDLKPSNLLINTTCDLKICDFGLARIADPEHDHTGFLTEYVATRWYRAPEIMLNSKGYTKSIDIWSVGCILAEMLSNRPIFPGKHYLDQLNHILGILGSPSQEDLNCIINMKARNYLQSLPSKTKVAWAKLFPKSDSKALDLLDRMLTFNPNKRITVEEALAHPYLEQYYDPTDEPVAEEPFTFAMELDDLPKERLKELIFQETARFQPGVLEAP
# Chain of Serine/threonine-protein kinase 24 (Homo sapiens) (Q9Y6E0 whole entry, looked up): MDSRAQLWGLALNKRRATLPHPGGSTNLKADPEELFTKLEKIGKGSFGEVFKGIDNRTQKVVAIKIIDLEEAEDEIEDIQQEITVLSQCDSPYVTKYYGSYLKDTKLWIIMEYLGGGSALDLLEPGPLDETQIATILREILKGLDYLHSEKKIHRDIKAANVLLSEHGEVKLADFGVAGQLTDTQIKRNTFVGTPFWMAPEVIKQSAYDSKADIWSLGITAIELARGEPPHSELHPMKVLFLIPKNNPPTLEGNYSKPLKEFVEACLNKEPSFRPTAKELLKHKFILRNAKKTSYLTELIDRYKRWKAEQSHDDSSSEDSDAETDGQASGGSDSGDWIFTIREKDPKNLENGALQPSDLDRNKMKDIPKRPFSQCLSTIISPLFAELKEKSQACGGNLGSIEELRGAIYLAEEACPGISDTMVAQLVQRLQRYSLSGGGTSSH
Structure (SMILES),inhibition [1] [%],inhibition [2] [%],inhibition [3] [%],inhibition [4] [%],inhibition [5] [%],inhibition [6] [%],inhibition [7] [%],inhibition [8] [%],inhibition [9] [%],inhibition [10] [%],inhibition [11] [%],inhibition [12] [%],inhibition [13] [%],inhibition [14] [%],inhibition [15] [%],inhibition [16] [%],inhibition [17] [%],inhibition [18] [%],inhibition [19] [%],inhibition [20] [%],also measured
COCCNc1nc2ccc(C#CC3(O)CCCCC3)cc2n1-c1ccnc(N)n1,-0.1,-0.2,10.2,10.3,7.2,11.6,10.2,5.2,2.5,0.9,6.2,5,5.3,-1,6.8,-6,5,3.4,-1.3,-3.1,inhibition [21]: -5.5%; inhibition [22]: 5.9%; inhibition [23]: 8.2%; inhibition [24]: 4.4%; inhibition [25]: 1.6%; inhibition [26]: 89.5%; inhibition [27]: 16.4%; inhibition [28]: 10.6%; inhibition [29]: 12.5%; inhibition [30]: 7.6%; inhibition [31]: 4.4%; inhibition [32]: 0.3%; inhibition [33]: 11.7%; inhibition [34]: 14.9%; inhibition [35]: 1.9%; inhibition [36]: 4.3%; inhibition [37]: 11.6%; inhibition [38]: 4.4%; inhibition [39]: 8.4%
CN1CCc2cc(-c3cnc4[nH]cc(C(=O)c5ccccc5Cl)c4c3)ccc2C1,79.3,99.5,95.3,25.9,86,91.5,92.5,-3.5,85.7,3.8,12.3,90.7,78.9,78.9,55.6,18.6,18.6,50.3,45.4,72.2,inhibition [21]: 37%; inhibition [22]: 70.2%; inhibition [23]: 53.8%; inhibition [24]: 97%; inhibition [25]: -0.9%; inhibition [26]: 29.2%; inhibition [27]: 49.5%; inhibition [28]: 16%; inhibition [29]: 8.3%; inhibition [30]: -4.8%; inhibition [31]: 18.4%; inhibition [32]: 92.1%; inhibition [33]: 6%; inhibition [34]: -6%; inhibition [35]: 92.9%; inhibition [36]: 37.1%; inhibition [37]: 4.3%; inhibition [38]: 34.8%; inhibition [39]: 5.1%

# From ChEMBL document CHEMBL5678812, “Inhibitors of p21-activated kinases (PAKs)” (J Med Chem, 2015)
